From US20190167711A1, “METHODS FOR DIAGNOSIS AND TREATMENT OF ACUTE LYMPHOBLASTIC LEUKEMIA” (MOR RESEARCH APPLICATIONS LTD., priority 2014, published 2019)

Assays:
[1] = test system: NAD^+ formation in Nalm-6 cell line; assay: NAD^+/NADH assay in Nalm-6 cells treated with FK866; assay type: cell-based
Experimental: (§1) The NAD^+/NADH ratio was measured in whole-cell extracts of NALM-6 cells using the Biovision NAD^+/NADH Quantification Colorimetric™ Kit (BioVision, San Francisco, Calif., USA) (also referred to herein as “NAD assay”) according to the manufacturer's protocol (see, for example, https://www.biovision.com/documentation/datasheets/K337.pdf). The NAD Cycling Enzyme Mix in the kit specifically recognizes NADH/NAD^+ in an enzyme cycling reaction. After 4 hrs, the plate was read at optical density (OD) 450 nm. The readings were normalized to the cell number and the NAD^+/NADH ratio was calculated as: (total NAD^+−NADH)/NADH.
Nalm-6 cells were treated for 1, 3, and 6 hours with 1 nM FK866 (Sigma) and NAD^+ formation was measured using NAD assay as described in Materials and Methods.
The sensitivity of NALM-6 cells to the NAMPT inhibitor FK866 was measured in cells following transfection with miR-451 mimic (SEQ ID NO: 2), miR-451 inhibitor (miArrest™ miR-451 expression clone; GeneCopoeia™), or scrambled miR. Sensitivity was assessed by measuring the levels of NAD^+. […] Thus, miR-451 expression can distinguish between patients that could benefit from treatment with NAMPT inhibitors such as FK866.

Nalm-6 cells [2] = assay: XTT cell viability assay in Nalm-6 cells; assay type: cell-based; details: 1 nM for 48 hours, Nalm-6 cells, XTT
Experimental: Cell viability assay was performed using the Cell Proliferation Kit comprising the second-generation tetrazolium dye, XTT. Viable cells with active metabolism convert XTT into an orange colored reduction product, whereas dead cells lose the ability to reduce XTT, thus, color formation serves as a useful and convenient marker of only the viable cells.
The XTT kit was applied to NALM6 transfected cells according to the manufacturer's protocol (Biological Industries, Kibbutz Beit Haemek, Israel). Cells were incubated for 3 hours with the XTT reagent and quantity of reduced XTT (directly proportional to the number of viable cells) was assessed by recording changes in absorbance as measured on a microplate reader at 450-500 nm optical density (OD).
(§2) To measure the effect of NAD^+ depletion following FK866 treatment of Nalm-6 cells, apoptosis and viability were measured as described in Materials and Methods. Nalm-6 cells were treated for 48 hours with 1 nM FK866, and then apoptosis was measured using FACS.

Nalm-6 cells [3] = assay: Annexin V-FITC apoptosis assay in Nalm-6 cells; assay type: cell-based; details: 1 nM for 48 hours, Nalm-6 cells, FACS
Source text: Cells were stained with annexin V-fluorescein-5-isothiocyanate (FITC) conjugated antibody and propidium iodide (PI) using the Annexin V-FITC Apoptosis Detection Kit (ab14085, Abcam® Incorporated, Cambridge, Mass., USA) according to manufacturer's instructions (see, for example, https://www.abcam.com/ps/products/14/ab14085/documents/ab14085%20Annexin %20V%20FITC%20Apoptosis%20Detection%20Kit%20v4%20(website).pdf), and read on the flow cytometer. Annexin V Apoptosis Detection Kit is based on the observation that soon after initiating apoptosis, cells translocate the membrane phosphatidylserine (PS) from the inner face of the plasma membrane to the cell surface. Once on the cell surface, PS can be easily detected by staining with a fluorescent conjugate (e.g., FITC) of Annexin V, a protein that has a high affinity for PS. The one-step staining procedure takes only 10 minutes. When performing both Annexin V-FITC and PI staining, it is possible to differentiate apoptosis vs necrosis.
as §2

NALM-6/miR-451 mimic = assay: FK866 in xenograft of NALM-6/miR-451 mimic stable line; assay type: in vivo, NSG™ mice
Experimental: (§3) miR-451 precursor and antagomiR-451 expression clones were obtained from GeneCopoeia™ (GeneCopoeia, Rockville, Md., USA). Stable cell lines were prepared by the Tel Aviv University's Vector Core Facility by transduction of ALL cell line (NALM-6) with lentiviral particles co-encoding miR-451 precursor or antagomiR-451, the ORF for EGFP/mCherry and puromycin-resistance, under the control of individual CMV promoters. The ORFs and the miR-451 precursor/antagomiR-451 oligonucleotide sequences were incorporated into the pLL3.7 3rd generation lentiviral vector. […]
(§4) Ten million ALL NALM-6 cells in 100 μl saline were injected subcutaneously, above the femur, to 6-8 weeks-old NSG™ mice (NSG™ mouse model variants are the most highly immunodeficient mice and therefore were chosen as models for cancer xenograft modelling). […] The volume of tumors was measured daily until mice were sacrificed. Tumor volume was monitored using vernier caliper measurements and calculated using the formula π(length)(width)^2/6. […]
(§5) In order to assess a possible association or correlation between miR-451 expression levels and sensitivity to in-vivo treatment of ALL with a NAMPT inhibitor, the effect of the NAMPT inhibitor FK866 was assessed in the presence of elevated levels or lowered levels of miR-451 in ALL xenograft mouse model. […] Tumors volume was measured daily.

[4] = Phase I, patients with advanced cancers; cited from earlier work
NALM-6/antagomiR-451 = assay: FK866 in xenograft of NALM-6/antagomiR-451 stable line; assay type: in vivo, NSG™ mice
Experimental: as §3, §4, §5

ALL NALM-6 cells = assay: FK866 in ALL xenograft mouse model; assay type: in vivo, NSG™ mice
Experimental: Ten million ALL NALM-6 cells in 100 μl saline were injected subcutaneously, above the femur, to 6-8 weeks-old NSG™ mice (NSG™ mouse model variants are the most highly immunodeficient mice and therefore were chosen as models for cancer xenograft modelling). Tumors were clinically evident 15-28 days following injection in more than 85% of the mice (n=175). Mice were divided into groups receiving either FK866 or vehicle treatment. Mice in the treatment group received FK866 in 0.9% saline intraperitoneally at a dose of 15 mg/Kg daily for 5 days. Vehicle in the control group was injected intraperitoneally once a day for 5 days repeated weekly. The volume of tumors was measured daily until mice were sacrificed. Tumor volume was monitored using vernier caliper measurements and calculated using the formula π(length)(width)^2/6. Each experiment was ended when tumor size reached 12×12 mm^3. All animal experiments were performed under an approved animal study protocol.
Following the in vitro studies described in Example 4 herein, the sensitivity of ALL tumor growth to a NAMPT inhibitor was tested in-vivo in an ALL xenograft mouse model. The NAMPT inhibitor tested was the known small molecule FK866. The effect of FK866 was tested in the ALL xenograft mouse model in 4 independent experiments each performed on a group of 82 NSG™ mice as follows: 41 mice were treated with FK866 (15 mg/kg) once a day for 5 days repeated weekly, and 41 mice served as controls (i.e., were not treated with FK866 and received saline instead).
Mice were treated from the day tumors were clinically evident in all mice (day 25), and tumors volume was measured daily.

NAD^+ levels = assay: NAD assay in TPA stimulated cells; assay type: cell-based, human
Experimental: as §1
NAMPT is the rate-limiting enzyme in the NAD^+ biosynthetic pathway. Thus, NAD^+ levels in the stimulated cells were measured using a standard NAD assay (BioVision NADH/NAD^+ Quantification Colorimetric™ Kit).

NAMPT = NAMPT expression after TPA treatment; assay type: cell-based; details: 50 ng/ml for 24 hours, human peripheral blood cells, FACS
Experimental: Studies by several investigators have shown that 12-0-tetradecanoylphorbol-13-acetate (TPA) (Sigma) is an extraordinarily potent tumor promoter and stimulates protein kinase C (PKC). Since NAMPT is over-expressed in several tumors, it was believed that it might be possible to achieve NAMPT stimulation by TPA treatment. To test this hypothesis, human peripheral blood cells were treated with 50 ng/ml TPA for 24 hours, and NAMPT expression was measured by FACS using a specific NAMPT antibody.

phospho-STAT protein = assay: Phospho-STAT levels by FACS after miR-1290 mimic transfection; assay type: cell-based; details: NALM-6 cell line transfected
Experimental: Phosphorylated STAT (phospho-STAT, activated by JAK) levels were measured by FACS analysis following transfection of miR-1290 mimic (overexpression) into NALM-6 cell line. An increase of 50% in the levels of phospho-STAT protein was evident in the cells expressing high levels of miR-1290 (FIG. 11).

O=C(/C=C/c1cccnc1)NCCCCC1CCN(C(=O)c2ccccc2)CC1 [FK866]
NAD^+ detection following treatment ([1]; 1 nM for 1, 3 and 6 hours, Nalm-6 cells): gradual decrease in NAD^+ detection | change in NAD^+ production after FK866 treatment compared to control ([1]; Nalm-6/miR-451 inhibitor cells): more than 5 fold | change in NAD^+ production after FK866 treatment compared to control ([1]; Nalm-6/miR-451 mimic cells): less change in NAD^+ production | cell viability (Nalm-6 cells [2]): significant decrease in cell viability | apoptosis level (Nalm-6 cells [3]): significantly increased apoptosis level | tumor growth/volume change treated vs untreated (NALM-6/miR-451 mimic; NALM-6/miR-451 mimic mice): Only a moderate difference in tumor growth/volume change | mean tumor volume at the end of experiments (NALM-6/miR-451 mimic; miR-451 mimic group, FK866 15 mg/kg): 544±64 mm^3 | tolerability and safety [4]: well tolerated and safe | tumor growth/volume change treated vs un-treated (NALM-6/antagomiR-451; NALM-6/antagomiR-451 mice): significant difference in tumor growth/volume change | mean tumor volume at the end of experiments (NALM-6/antagomiR-451; antagomiR-451 group, FK866 15 mg/kg): 117±81 mm^3 | mean tumor volume at the end of experiment (ALL NALM-6 cells; 15 mg/kg daily, day 32): 300.36±63.67 mm^3 | tumor growth increase (ALL NALM-6 cells; 15 mg/kg daily, day 32 vs day 25): less than 150% | volume change treated vs non-treated group (ALL NALM-6 cells; within 4 days of treatment (day 29)): tumor growth inhibition

CCCCCCCCCCCCCC(=O)O[C@@H]1[C@@H](C)[C@@]2(O)[C@@H](C=C(CO)C[C@]3(O)C(=O)C(C)=C[C@@H]23)[C@@H]2C(C)(C)[C@]12OC(C)=O [TPA, 12-O-tetradecanoylphorbol-13-acetate]
cellular NAD^+ levels, fold higher (NAD^+ levels): 2 fold | increase in NAMPT expression levels (NAMPT): more than 4 folds

miR-1290 mimic: synthetic miR-1290 mimic, SEQ ID NO:4, for over-expression of miR-1290 (UGGAUUUUUGGAUCACCUGAUCCAAAAAU; listed as RNA, chemistry not given here)
increase in the levels of phospho-STAT protein (phospho-STAT protein): 50%
